# According to US20120237441A9, “ENHANCED B CELL CYTOTOXICITY OF CDIM BINDING ANTIBODY” (priority 2003, published 2012):
# Where “and” joins values, the source holds several entries; their conditions need not be identical. Equal values may be shown once.
# Assays:
# [1] = tested on: Nalm-6 cells; test: Cell viability assay using PI staining and forward scatter; assay type: cell-based, human; conditions: for viability: cytochalasin 5 μgs/ml or jasplakinolide 3 μgs/ml for 2 hr, then control antibodies; for effect of caspase inhibitor on cell viability: 10 μM for 2 hr at 37° C. before treatment with mAb 216
# Experimental: The integrity of the plasma membrane was assessed by the ability of cells to exclude propidium iodide (PI, Sigma, St. Louis, Mo.). The level of PI incorporation was quantitated by flow cytometry on FACScan (Becton-Dickinson, San Jose Calif.) interfaced with VersatermPro and FlowJo software at Stanford's FACS facility. PI-negative cells with normal size as measured by forward scatter signals were considered live cells.
# Briefly, cells were treated as specified in each experiment and resuspended in PBS with 3% FCS and 10 μgs/ml of PI. In experiments where toxicity was evaluated in Ca-free medium, cells were resuspended in appropriate media with or without calcium to which 10 μgs/ml PI was added. Since previous studies have shown that mAb 216-mediated toxicity is remarkably pronounced at lower temperatures (Bhat, N. M., et al. (1996) Clin. Exp. Immunol. 105:183), precautions were taken to keep all media and cells at 37° C. and the centrifuge at room temperature.
# Cytochalasin was obtained from Sigma and jasplakinolide was obtained from Molecular Probes (Eugene, Oreg.). Caspase inhibitors, Ac-IETD-CHO and Ac-DEVD-CHO were obtained from PharMingen (San Diego, Calif.). Nalm-6 cells (1×10^6 cells/ml) were treated with jasplakinolide (3 μgs/ml), cytochalasin (5 μgs/ml), or caspase inhibitors (10 μM) for 2 hr at 37° C. before treatment with mAb 216. Control samples with equivalent amounts of DMSO were set in parallel. Cells were then exposed to 25 μg of mAb 216 or control Ab and analyzed by flow cytometry.
# Since exocytosis of lysosomes is known to be a calcium dependent phenomenon (Miyake, K., and P. L. McNeil (1995) J. Cell Biol. 131:1737; Bi, G. Q., et al. (1995) J. Cell Biol. 131:1747), membrane wounding by mAb 216 nd repair of the wound was tested in calcium free and normal calcium conditions. The cell viability of Nalm-6 cells when treated with two VH4-34 encoded mAbs, mAb 216 at 50, 25 and 12.5 ng/ml concentrations, and Y2K at 50 ng/ml, was tested in the presence of media with and without calcium.
# Brefeldin-A was obtained from Sigma. Nalm-6 cells (1×10^6 cells/ml) were treated with BFA (25 μg/ml) for 2 hr at 37° C. before treatment with mAb 216. Control samples with equivalent amounts of DMSO were set in parallel. Cells were then exposed to 25 μg of mAb 216 or control Ab and analyzed by flow cytometry.
# [2] = tested on: Nalm 6; test: In vitro cytotoxicity of mAb216 in combination with chemotherapeutic agents; assay type: cell-based, human; conditions: for Live cells ×10^5 / % change in live cells: 48 h; for % change in live cells: versus control
# Experimental: (§1) Three cell lines which have been derived from ALL blasts of different genotype and phenotype, Nalm 6, REH, and SUPB15, were incubated with mAb 216 alone or in combination with vincristine (VCR), for 48 hours at 37° C.
# (§2) In vitro cytotoxicity of mAb216 in combination with single chemotherapeutic agents was tested. Three cell lines which have been derived from ALL blasts of different genotype and phenotype, Nalm 6, REH, and SUPB 15, were incubated with mAb 216 alone or in combination with vincristine (VCR), daunorubicin (DNR), or L-asparaginase (ASPR).
# [3] = tested on: Reh; test: as above; assay type: cell-based, human; conditions: 48 h; for % change in live cells: versus control
# Experimental: as §1, §2
# [4] = tested on: SUP B15; test: as above; assay type: cell-based; conditions: 48 h; for % change in live cells: versus control
# Experimental: as §1, §2
molecule,measurement,setting,value
C/C1=C\[C@H](C)C[C@H](C)OC(=O)C[C@H](c2ccc(O)cc2)NC(=O)[C@@H](Cc2c(Br)[nH]c3ccccc23)N(C)C(=O)[C@H](C)NC(=O)[C@@H](C)C1 [jasplakinolide],viability,[1],did not show a decrease in viability
"COc1cccc2c1C(=O)c1c(O)c3c(c(O)c1C2=O)C[C@@](O)(C(C)=O)C[C@@H]3O[C@H]1C[C@H](N)[C@H](O)[C@H](C)O1 [DNR, daunorubicin]",Live cells ×10^5,[2]; DNR 5 ng/ml,4.3 ×10^5 and 4.5 ×10^5
same,% change in live cells,[2]; DNR 5 ng/ml,47% and 59%
same,Live cells ×10^5,[3]; DNR 5 ng/ml,4.5 ×10^5
same,% change in live cells,[3]; DNR 5 ng/ml,65%
same,Live cells ×10^5,[4]; DNR 4 ng/ml,0.44 ×10^5
same,% change in live cells,[4]; DNR 4 ng/ml,91%
"CC[C@]1(O)C[C@H]2CN(CCc3c([nH]c4ccccc34)[C@@](C(=O)OC)(c3cc4c(cc3OC)N(C=O)[C@H]3[C@@](O)(C(=O)OC)[C@H](OC(C)=O)[C@]5(CC)C=CCN6CC[C@]43[C@@H]65)C2)C1 [VCR, vincristine]",Live cells ×10^5,[2]; VCR 0.2 ng/ml,13 ×10^5
same,% change in live cells,[2]; VCR 0.2 ng/ml,0%
same,Live cells ×10^5,[2]; VCR 2 ng/ml,5 ×10^5
same,% change in live cells,[2]; VCR 2 ng/ml,54%
same,cell death due to vincristine alone,"[2]; vincristine 0.2 ng/ml, 48 hours at 37° C.",no cell death occurred
same,Live cells ×10^5,[3]; VCR 2 ng/ml,4.2 ×10^5 and 7.7 ×10^5
same,Live cells ×10^5,[4]; VCR 2 ng/ml,2.8 ×10^5
same,% change in live cells,[4]; VCR 2 ng/ml,45%
cytochalasin,viability,[1],did not show a decrease in viability
"C[C@H]1CCC/C=C/[C@@H]2C[C@H](O)C[C@H]2[C@H](O)/C=C/C(=O)O1 [BFA, Brefeldin A]",viability of cells treated with control antibodies,[1]; BFA 25 μg/ml for 2 hr,no effect
Ac-DEVD-CHO,effect of caspase inhibitor on cell viability,[1],did not alter cell viability
Ac-IETD-aldehyde,effect of caspase inhibitor on cell viability,[1],did not alter cell viability
"L-asparaginase (protein, UniProt P00805 23-348, looked up) L-asparaginase 2: LPNITILATGGTIAGGGDSATKSNYTVGKVGVENLVNAVPQLKDIANVKGEQVVNIGSQDMNDNVWLTLAKKINTDCDKTDGFVITHGTDTMEETAYFLDLTVKCDKPVVMVGAMRPSTSMSADGPFNLYNAVVTAADKASANRGVLVVMNDTVLDGRDVTKTNTTDVATFKSVNYGPLGYIHNGKIDYQRTPARKHTSDTPFDVSKLNELPKVGIVYNYANASDLPAKALVDAGYDGIVSAGVGNGNLYKSVFDTLATAAKTGTAVVRSSRVPTGATTQDAEVDDAKYGFVASGTLNPQKARVLLQLALTQTKDPQQIQQIFNQY",Live cells ×10^5,[2]; ASPR 0.8 U/ml,9.2 ×10^5
same,% change in live cells,[2]; ASPR 0.8 U/ml,23%
same,Live cells ×10^5,[3]; ASPR 0.8 U/ml,6.2 ×10^5
same,% change in live cells,[3]; ASPR 0.8 U/ml,35%
same,Live cells ×10^5,[4]; ASPR 0.8 U/ml,3 ×10^5
same,% change in live cells,[4]; ASPR 0.8 U/ml,47%
